Experimental findings from patent publication US20230074209A1, “METHOD AND DEVICE FOR PROVIDING DRUG RECOMMENDATION” (Cancerfree biotech Ltd., priority 2021, published 2023) are described below.

The subject of series [1] is patient's CTC-derived organoid cultures. Briefly: Drug sensitivity assay of CTC-derived organoid cultures (CellTiter Glo ATP, relative cell viability). In kind it is cell-based, human. Particulars: for CTC sensitivity profiling: CTCs of patient; for relative cell viability: CTC-derived organoid cultures of patient, one week co-culture. The source says:
In some embodiments, first, a liquid biopsy of the patient is obtained, and CTCs are then isolated from the liquid biopsy, and the CTCs are then expanded to obtain the CTC-derived organoid cultures. The liquid biopsy is, for example, a blood sample, such as a peripheral venous blood sample. In one example, the CTCs were isolated from the liquid biopsy, and the biomimetic cell culture system was then used to expand the CTCs in vitro to form the CTC-derived organoid cultures. In one example, Ficoll-Paque centrifugation was used to isolate peripheral blood mononuclear cells (PBMCs) containing the CTCs from the blood sample. The cells were then seeded onto a substrate of binary colloidal crystal (BCC) containing silica and polymethyl methacrylate (PMMA), and cultured in the biomimetic cell culture system for three weeks, with replacement of culture medium every four days. The expansion of the organoid cultures could be monitored by optical microscopy, and the presence of the CTCs could be confirmed by EpCAM and CD45 immunofluorescence staining. The CTC-derived organoid cultures were positive for EpCAM and negative for CD45 in the immunofluorescence staining
In one example, the CTC-derived organoid cultures were resuspended in a culture medium, and then divided into aliquots and loaded to 96-well plates for drug sensitivity assays. The aliquots were divided into a control group (not reacted with a drug) and drug test groups (respectively reacted with different drugs). For advanced pancreatic ductal adenocarcinoma, gemcitabine, 5-fluorouracil (5-FU), erlotinib, irinotecan, olaparib, oxaliplatin, paclitaxel, palbociclib and trametinib were selected as candidate drugs and tested against the CTC-derived organoid cultures at concentrations according to the clinical pharmacokinetics of each of the drugs, in order to mimic the effect of a clinical dose in patients. Different drug treatments were respectively added to each of the wells in the 96-well plates, after which cultures were continued to co-culture for one week. At the end of the assay period, viable cell counts were measured using cytosolic adenosine triphosphate (ATP) abundance (CellTiter Glo, Promega, Madison Wis., USA) via a luminometer (Promega). The relative cell viabilities of the CTC-derived organoid cultures respectively corresponding to the 9 candidate drugs were calculated by the formula: relative cell viability=(viable cell counts of the drug test group/viable cell counts of the control group)×100%. Lower cell viability following application of test treatments was indicative of greater drug sensitivity and better anti-tumor effect. However, the present disclosure is not limited to the above example, and other test methods or calculation methods can be used to obtain the relative cell viabilities.
In general terms: Cellular ATP, detected with luciferase, serves as a proxy for viable cell number.

Series [2] relates to pancreatic cancer. As to the kind of experiment: Clinical course of individual pancreatic cancer patients under treatment. In kind it is in vivo, human. Particulars: patient.
Method: In one example, clinical response to treatment in patients was evaluated using Response Evaluation Criteria in Solid Tumors (RECIST) version 1.1 criteria.
The mark [3] stands for this setting: locally advanced pancreatic cancer.
Where [4] appears, read: August 2019, 12 cycles of chemotherapy plus radiotherapy 44 Gy/20 Fx.

Turning to `CC(=O)O[C@H]1C(=O)[C@@]2(C)[C@H]([C@H](OC(=O)c3ccccc3)[C@]3(O)C[C@H](OC(=O)[C@H](O)[C@@H](NC(=O)c4ccccc4)c4ccccc4)C(C)=C1C3(C)C)[C@]1(OC(C)=O)CO[C@@H]1C[C@@H]2O` [paclitaxel], the CTC sensitivity profiling result in series [1] (setting [3]) is “resistance”.

For `CCc1c2c(nc3ccc(OC(=O)N4CCC(N5CCCCC5)CC4)cc13)-c1cc3c(c(=O)n1C2)COC(=O)[C@]3(O)CC` [irinotecan], in series [1] (setting [3]), the CTC sensitivity profiling entry is on record as “resistance”.

Consider FOLFIRINOX, for which, in series [2] (setting [4]), the “abdominal CT scan response, liver metastases” value is “partial response (PR)” and the “abdominal CT scan response, pancreatic mass” value is “stable disease (SD)”. Also, the “follow-up CT scan response, pancreatic tumor” value in series [2] (November 2019, with liver, bone and peritoneal seeding) is “progressive disease (PD)”.

Take `O=C1[O][Pt]2([NH][C@@H]3CCCC[C@H]3[NH]2)[O]C1=O` [oxaliplatin]: the CTC sensitivity profiling entry in series [1] (setting [3]) is on record as “resistance”.

For `C#Cc1cccc(Nc2ncnc3cc(OCCOC)c(OCCOC)cc23)c1` [erlotinib], the relative cell viability in series [1] (locally advanced pancreatic cancer, clinical-PK concentration) stood at 27.8%.

In turn, `O=C(c1cc(Cc2n[nH]c(=O)c3ccccc23)ccc1F)N1CCN(C(=O)C2CC2)CC1` [olaparib] had a relative cell viability in series [1] (metastatic pancreatic cancer) of 16.7%.

In the case of `O=c1[nH]cc(F)c(=O)[nH]1` [5-FU, 5-fluorouracil], the CTC sensitivity profiling result in series [1] (setting [3]) was “resistance”.
